Values quoted from earlier work, collected in US6806373B2, “Process for preparing leflunomide form I” (Teva Pharmaceutical Industries Ltd., priority 1999, dated 2004).

Columns and labels:
[1] = water or mixtures of water and C1-C4 alcohols, acetone or methyl ethyl ketone, even with heating (<40° C.)
[2] = according to AU-A-78870/98
[3] = solid form, according to AU-A-78870/98

Compound | solubility in suspension solvents [1] | dissolution in water compared with Form I [2] | kinetically stable up to (temperature) [3]
Cc1oncc1C(=O)Nc1ccc(C(F)(F)F)cc1 [leflunomide] | poorly soluble |  | 
Cc1oncc1C(=O)Nc1ccc(C(F)(F)F)cc1 [Form II] |  | more readily dissolves in water than does Form I | up to 40 °C
